Experimental data published in patent US4396607A, “Muramyl peptide derivatives and pharmaceutical compositions” (priority 1978, dated 1983).

What was measured:
[1] = Toxicity (lethal dose 50) by parenteral administration in the adrenalectomised mouse; format: in vivo, mice
Method: The toxicity of the products according to the invention was investigated by parenteral administration in mice. It was observed that the toxic doses were of an order of magnitude very much higher than that of the doses at which these products manifest their activity. Thus the lethal dose 50 of the products according to the invention tested was higher than 5 mg/kg of animal in the adrenalectomised mouse, whose sensitivity to endotoxins is well-known.

[2] = tested on: bovine serum albumin (BSA); experiment: Adjuvant character in the aqueous phase (antibody titer by passive hemagglutination); format: in vivo, Swiss mice; details: mice, 0.5 mg BSA with 0.1 mg tested substance SC in isotonic saline, booster day 30, titer at the 36th day
Method: Groups of 8 Swiss mice aged two months received, by sub-cutaneous injection (SC), 0.5 mg of antigen constituted by bovine serum albumin (BSA) with 0.1 mg or without the tested substance in an isotonic saline solution. This high dose of antigen, because it is situated at the limit of the paralyzing dose with respect to the immunitary response, results, for this reason, in a weak or zero response to the antigen only in the controls: It constitutes therefore a severe criterien to establish the activity of an adjuvant substance. Thirty days later, the mice received, by the same administrative route, a booster containing 0.1 mg of the same antigen.
The antibody level was determined, six days after the booster, by passive hemagglutination using sheep's red blood corpuscles treated with formalin and covered with the antigen studied according to the method described by A. A. HIRATA and M. W. BRANDISS (J. Immunol., 100, 641-648, 1968).
The antibody titer, represented by the maximum serum dilution agglutinating a given amount of sheep corpuscles, reaches a maximum at the 36th day and is established in the following manner: […]

[3] = tested on: Ovalbumin; experiment: Adjuvant character in emulsion (delayed hypersensitivity and antibodies); format: in vivo, Hartley guinea pigs; details: guinea pigs, 50 μg in AlF emulsion with 1 mg ovalbumin; for Log2 of the hemagglutinating titer: serum day 21; for HSR (diameter of the delayed hypersensitivity reaction): skin test day 18, read 48 hours later
Method: The tests were carried out on batches of 6 male Hartley guinea pigs of 350 g. The administration was done by intradermal injection into the plantar pad of each of the rear paws. Ovalbumin (constituting the antigen) in the amount of 1 mg is prepared in 0.1 ml of an emulsion of saline isotonic solution, in any oily phase constituted either by the Freund imcomplete adjuvant (FIA), or by the complete adjuvant (FCA) formed by the FIA to which is added 0.1 mg of whole Mycobacterium smegmatis cells. The compound according to the invention was administered in the amount of 0.05 mg added in the emulsion containing the FIA.
Eighteen days after this immunization, possible delayed hypersensitivity reactions to the antigen were sought by injecting by the intradermal route 0.01 mg of ovalbumin in the side of the animals, and 48 hours later, the reaction of the point of injection was observed. The diameter in millimeters of the reaction thus caused was measured.
Twenty-one days after the injection, the animals were bled. […]

[4] = tested on: Klebsiella pneumoniae; experiment: Anti-infectious activity with respect to Klebsiella; format: in vivo; details: mice, i.v. treatment 24h before 2 × 10^4 bacteria i.m.
Method: The survival of groups of inoculated mice under the above conditions and treated by means of the products according to the invention was followed.
The infecting dose was 2.10^4 Klebsiella; it was administered by the intramuscular route.
The administration of the tested product was carried out by the intravenous route in 0.2 ml of apyrogenic physiological solution, the controls receiving the solution alone. It was carried out 24 hours before the inoculation.
The percentage protection indicated is a difference of the percentages of survivors of the treated group with respect to the control group.

[5] = tested on: Limulus amoebocyte lysate; experiment: Limulus test (endotoxic type activity); details: gel formation after 20 minutes at 37° C.
Method: For this purpose, 0.1 ml of the Limulus amoebocyte lysate preparation (marketed by the MALLINCKRODT Company, at St. LOUIS, U.S.A.) was mixed with an equal volume of the tested product at various concentrations in solution in apyrogenic distilled water. The vessels used were also made apyrogenic by dry heating in the oven, at 180° C., for 2 hours.
After incubating the mixture for 20 minutes at 37° C. in tubes, the formation of gel characteristics of the presence of endotoxin was estimated.

[6] = tested on: Listeria monocytogenes; experiment: Anti-infectious activity with respect to Listeria; format: in vivo; details: mice, i.v., 1 day before infection

Row | SMILES | lethal dose 50 [1] | Log2 hemagglutinating titer [2] | Log2 of the hemagglutinating titer [3] | HSR (diameter of the delayed hypersensitivity reaction) [3] [millimeters] | % of protection ([4]; dose per mouse 100) [%] | Number of survivors at day 3 ([4]; dose per mouse 100) | Number of survivors at day 5 ([4]; dose per mouse 100) | Number of survivors at day 8 ([4]; dose per mouse 100) | other results
1 | CC(=O)N[C@H]1C(O)O[C@H](CO)[C@@H](O)[C@@H]1O[C@H](C)C(=O)N[C@@H](C)C(=O)N[C@H](CCC(=O)N[C@@H](C)C(=O)OCc1ccccc1)C(N)=O (stereo partly drawn) [MDP--L--Ala--benzyl--ester, Benzyl ester of N-acetyl-muramyl-L-alanyl-D-isoglutaminyl-L-alanine] | higher than 5 mg/kg | 7.47 ± 0.89 | 12.31 ± 0.82 | 12.5 ± 3.5 | 46 | 24 | 14 | 14 | 
2 | CCCCOC(=O)[C@H](C)NC(=O)CC[C@@H](NC(=O)[C@H](C)NC(=O)[C@@H](C)O[C@H]1[C@H](O)[C@@H](CO)OC(O)[C@@H]1NC(C)=O)C(N)=O (stereo partly drawn) [MDP--L--Ala--butyl--ester, n-butyl ester of N-acetyl-muramyl-L-alanyl-D-isoglutaminyl-L-alanine] |  | 10.31 ± 0.49 | 13.31 ± 0.52 | 18 ± 2 | 54 | 23 | 18 | 17 | 
3 | CCCCCCCCCCNC(=O)[C@H](C)NC(=O)CC[C@@H](NC(=O)[C@H](C)NC(=O)[C@@H](C)O[C@H]1[C@H](O)[C@@H](CO)OC(O)[C@@H]1NC(C)=O)C(N)=O (stereo partly drawn) [MDP--L--Ala--decyl--amide, Decylamide of N-acetyl-muramyl-L-alanyl-D-isoglutamine-L-alanine] | higher than 5 mg/kg | 8.64 ± 0.95 |  |  | 50 | 21 | 17 | 16 | Limulus test result (concentration of the tested product) [5]: 100 µg/mL
4 | CCCCCCCCCCOC(=O)[C@H](C)NC(=O)CC[C@@H](NC(=O)[C@H](C)NC(=O)[C@@H](C)O[C@H]1[C@H](O)[C@@H](CO)OC(O)[C@@H]1NC(C)=O)C(N)=O (stereo partly drawn) [MDP--L--Ala--decyl--ester, Decyl ester of N-acetyl-muramyl-L-alanyl-D-isoglutaminyl-L-alanine] |  | 6.23 ± 1.23 |  |  | 44 | 30 | 22 | 22 | Limulus test result (concentration of the tested product) [5]: 100 µg/mL; % of protection ([6]; 10 μg per mouse): 50%; Number of surviving animals at day 5 ([6]; 10 μg per mouse): 7; Number of surviving animals at day 10 ([6]; 10 μg per mouse): 5; % of protection ([6]; 100 μg per mouse): 38%; Number of surviving animals at day 5 ([6]; 100 μg per mouse): 19; Number of surviving animals at day 10 ([6]; 100 μg per mouse): 11; % of protection ([6]; 300 μg per mouse): 23%; Number of surviving animals at day 5 ([6]; 300 μg per mouse): 11; Number of surviving animals at day 10 ([6]; 300 μg per mouse): 5
5 | CCCCCCCCCCCCCCCOC(=O)[C@H](C)NC(=O)CC[C@@H](NC(=O)[C@H](C)NC(=O)[C@@H](C)O[C@H]1[C@H](O)[C@@H](CO)OC(O)[C@@H]1NC(C)=O)C(N)=O (stereo partly drawn) [MDP--L--Ala--penta--decyl--ester, Pentadecyl ester of N-acetyl-muramyl-L-alanyl-D-isoglutaminyl-L-alanine] |  | 8.39 ± 0.89 | 10.97 ± 1.04 | 5 | 50 | 24 | 16 | 15 | 
6 | CCCCCCCCCCOC(=O)[C@H](CCCCN)NC(=O)CC[C@@H](NC(=O)[C@H](C)NC(=O)[C@@H](C)O[C@H]1[C@H](O)[C@@H](CO)OC(O)[C@@H]1NC(C)=O)C(N)=O (stereo partly drawn) [MDP--L--Lys--decyl--ester, Decyl ester of N-acetyl-muramyl-L-alanyl-D-isoglutaminyl-L-lysine] | higher than 5 mg/kg | 9.64 ± 0.70 |  |  | 71 | 22 | 20 | 20 | 
7 | CCCCCCCCCCOC(=O)CC[C@@H](NC(=O)[C@H](C)NC(=O)[C@@H](C)O[C@H]1[C@H](O)[C@@H](CO)OC(O)[C@@H]1NC(C)=O)C(N)=O (stereo partly drawn) [MDP--decyl--ester, Decyl ester of N-acetyl-muramyl-L-alanyl-D-isoglutamine] | higher than 5 mg/kg | 8.64 ± 1.31 |  |  | 75 | 24 | 21 | 21 | Number of survivors at day 3 ([4]; dose per mouse 10): 1; Number of survivors at day 5 ([4]; dose per mouse 10): 0; Number of survivors at day 8 ([4]; dose per mouse 10): 0
8 | CCCCOC(=O)CC[C@@H](NC(=O)[C@H](C)NC(=O)[C@@H](C)O[C@H]1[C@H](O)[C@@H](CO)OC(O)[C@@H]1NC(C)=O)C(=O)OC (stereo partly drawn) [MDPA(butyl--ester)OCH3, α-methyl, γ-n-butyl N-acetyl-muramyl-L-alanyl-D-glutamic diester] |  |  |  |  | 38 | 12 | 11 | 9 | 
9 | CCCCCCCCCCOC(=O)CC[C@@H](NC(=O)[C@H](C)NC(=O)[C@@H](C)O[C@H]1[C@H](O)[C@@H](CO)OC(O)[C@@H]1NC(C)=O)C(=O)OC (stereo partly drawn) [MDPA(decyl--ester)OCH3, α-methyl, γ-decyl N-acetyl-muramyl-L-alanyl-D-glutamic diester] |  |  |  |  | 44 | 13 | 11 | 10 | 
